The test system of series [1] is MHCC97L cells. The series can be described thus: MTT cell viability assay and drug interaction analysis. The class given is cell-based, human. The conditions noted are these: single drug.
In series [2] the test system is NMDAR subunits. The conditions noted are these: cited from earlier work.
Series [3] relates to pancreatic cancer cells. The settings on record: cited from earlier work.
Series [4] has as its system HCC patients. The settings on record: phase II, cited from earlier work.
Series [5] has as its system HCC patients. The settings on record: phase III BRISK-PS, secondary treatment; cited from earlier work.
The test system of series [6] is HCC patients. The conditions noted are these: phase III, first line; cited from earlier work.
The subject of series [7] is advanced HCC patients. The settings on record: 28 patients; cited from earlier work.
Series [8] has as its system HCC patients. The conditions noted are these: single arm phase II; cited from earlier work.
Series [9] relates to HCC patients. The conditions noted are these: phase III versus sorafenib; cited from earlier work.

Like-named read-outs stand apart in the source and are kept apart here.

As for `C[C@]12N[C@H](Cc3ccccc31)c1ccccc12` [MK-801, Dizocilpine (MK-801)], the “HCC growth, NMDAR inhibitor alone” value in [1] is on record as “did not significantly suppress”. In series [2], the NMDAR subunit selectivity result is listed as “blocks all NMDAR subunits in a non-selective manner”; the “toxicity / safety as therapeutic agent” value is “poses high toxicity and is less tolerated”. Moreover, the “tumor growth and invasiveness of pancreatic cancer cells” value in series [3] was “reduced tumor growth and invasiveness”.
Take `Cc1cc2c(F)c(Oc3ncnn4cc(OC[C@@H](C)O)c(C)c34)ccc2[nH]1` [brivanib]: in series [4] (first line), the median overall survival was 10 months. For the same compound, the median overall survival in series [4] (second line) is reported as 9.5 months. Besides, the “median length of overall survival” value in series [5] is 9.4 months. In [6], the Median survival was 9.5 months and the discontinuation rate is reported as 43%.
Take `CO[C@H]1C[C@@H]2CC[C@@H](C)[C@@](O)(O2)C(=O)C(=O)N2CCCC[C@H]2C(=O)O[C@H]([C@H](C)C[C@@H]2CC[C@@H](OCCO)[C@H](OC)C2)CC(=O)[C@H](C)/C=C(\C)[C@@H](O)[C@@H](OC)C(=O)[C@H](C)C[C@H](C)/C=C/C=C/C=C/1C` [everolimus]: in series [7], the “median progression free survival” value is 3.8 months and the overall survival was 8.4 months.
As to `Cc1ccc(F)c(NC(=O)Nc2ccc(-c3cccc4[nH]nc(N)c34)cc2)c1` [linifanib], the safety profile entry in series [8] is listed as “acceptable safety profile”.
On to `CCN(CC)CCNC(=O)c1c(C)[nH]c(/C=C2\C(=O)Nc3ccc(F)cc32)c1C` [sunitinib], for which the trial outcome in [9] was “terminated early due to increased side effects and futility concerns”.
